In ChEMBL document CHEMBL3232804, “Synthesis and evaluation of new diaryl ether and quinoline hybrids as potential antiplasmodial and antimicrobial agents” (Bioorg Med Chem Lett, 2014):
Values after ≈ are worked out from the molar mass of the structure shown.

Key:
[1] = test system: Trichophyton mentagrophytes; assay: Antifungal activity against Trichophyton mentagrophytes clinical isolate after 72 to 96 hrs by standard broth microdilution method; format: functional
Klebsiella pneumoniae = assay: Antimicrobial activity against Klebsiella pneumoniae ATCC 27736 after 24 hrs by standard broth microdilution method; format: functional
Plasmodium falciparum [2] = assay: Antiplasmodial activity against chloroquine-sensitive Plasmodium falciparum 3D7 infected after 72 hrs by Malaria SYBR Green I-staining based fluorescence assay; format: functional, organism-based; conditions: 3D7, 72 h
Staphylococcus aureus = assay: Antimicrobial activity against Staphylococcus aureus ATCC 25923 after 24 hrs by standard broth microdilution method; format: functional
Aspergillus fumigatus = assay: Antifungal activity against Aspergillus fumigatus clinical isolate after 72 to 96 hrs by standard broth microdilution method; format: functional
Sporothrix schenckii = assay: Antifungal activity against Sporothrix schenckii clinical isolate after 72 to 96 hrs by standard broth microdilution method; format: functional
Pseudomonas aeruginosa = assay: Antimicrobial activity against Pseudomonas aeruginosa ATCC BAA-427 after 24 hrs by standard broth microdilution method; format: functional
Escherichia coli = assay: Antimicrobial activity against Escherichia coli ATCC 9637 after 24 hrs by standard broth microdilution method; format: functional
Plasmodium falciparum [3] = assay: Antiplasmodial activity against chloroquine-resistant Plasmodium falciparum K1 infected after 72 hrs by Malaria SYBR Green I-staining based fluorescence assay; format: functional, organism-based; conditions: K1, 72 h
Cryptococcus neoformans = assay: Antifungal activity against Cryptococcus neoformans clinical isolate after 24 to 48 hrs by standard broth microdilution method; format: functional
Candida parapsilosis = assay: Antifungal activity against Candida parapsilosis ATCC […] after 72 to 96 hrs by standard broth microdilution method; format: functional; conditions: Lodderomyces parapsilosis
Candida albicans = assay: Antifungal activity against Candida albicans clinical isolate after 24 to 48 hrs by standard broth microdilution method; format: functional
[4] = Selectivity index, ratio of IC50 for african green monkey Vero cells to IC50 for chloroquine-sensitive Plasmodium falciparum 3D7; format: toxicity, cell-based; conditions: read-out: Ratio IC50

Row | Molecule | MIC [1] [µg/mL] | MIC (Klebsiella pneumoniae; ATCC 27736, 24 h) [µg/mL] | IC50 (Plasmodium falciparum [2]) [nM] | MIC (Staphylococcus aureus; ATCC 25923, 24 h) [µg/mL] | MIC (Aspergillus fumigatus) [µg/mL] | MIC (Sporothrix schenckii) [µg/mL] | MIC (Pseudomonas aeruginosa; ATCC BAA-427, 24 h) [µg/mL] | MIC (Escherichia coli; ATCC 9637, 24 h) [µg/mL] | IC50 (Plasmodium falciparum [3]) [nM] | MIC (Cryptococcus neoformans) [µg/mL] | MIC (Candida parapsilosis) [µg/mL] | MIC (Candida albicans) [µg/mL] | MIC (Klebsiella pneumoniae) [µg/mL] | MIC (Staphylococcus aureus) [µg/mL] | MIC (Pseudomonas aeruginosa) [µg/mL] | MIC (Escherichia coli) [µg/mL] | selectivity ratio [4]
1 | COc1ccc(Oc2ccc(N/C(=N/c3ccccc3)NCCNc3ccnc4cc(Cl)ccc34)cc2)cc1 | 12.5 (≈ 23.2 µM) | 12.5 (≈ 23.2 µM) | > 900 | 6.25 (≈ 11.6 µM) | 25 (≈ 46.5 µM) | 12.5 (≈ 23.2 µM) | > 50 | 6.25 (≈ 11.6 µM) | 635 | 50 (≈ 92.9 µM) | 25 (≈ 46.5 µM) | 25 (≈ 46.5 µM) |  |  |  |  | 
2 | GENTAMICIN SULFATE |  |  |  |  |  |  |  |  |  |  |  |  | 1.56 | 1.56 | 0.39 | 1.56 | 
3 | OC(Cn1cncn1)(Cn1cncn1)c1ccc(F)cc1F [FLUCONAZOLE] | 1 (≈ 3.27 µM) |  |  |  | 2 (≈ 6.53 µM) | 2 (≈ 6.53 µM) |  |  |  | 1 (≈ 3.27 µM) | 1 (≈ 3.27 µM) | 0.5 (≈ 1.63 µM) |  |  |  |  | 
4 | COc1cccc(OC)c1C(=O)N[C@@H]1C(=O)N2[C@@H]1SC(C)(C)[C@@H]2C(=O)O [METHICILLIN] |  | > 50 |  | 1.56 (≈ 4.1 µM) |  |  | > 50 | > 50 |  |  |  |  |  |  |  |  | 
5 | COc1ccc(Oc2ccccc2N/C(=N/c2ccc(Cl)cc2)NCCNc2ccnc3cc(Cl)ccc23)cc1 |  | > 50 | 103 | 12.5 (≈ 21.8 µM) |  | 12.5 (≈ 21.8 µM) | > 50 | 50 (≈ 87.3 µM) | 329 | 25 (≈ 43.7 µM) |  | 50 (≈ 87.3 µM) |  |  |  |  | 172
6 | COc1ccc(Oc2ccccc2N/C(=N/c2ccc(Cl)cc2)NCCCCNc2ccnc3cc(Cl)ccc23)cc1 |  | > 50 | 124 | 50 (≈ 83.3 µM) |  | 25 (≈ 41.6 µM) | > 50 | > 50 | > 800 | 50 (≈ 83.3 µM) |  | 50 (≈ 83.3 µM) |  |  |  |  | 62.8
7 | COc1ccc(Oc2ccccc2N/C(=N/c2ccccc2)NCCCNc2ccnc3cc(Cl)ccc23)cc1 | > 50 | > 50 | 120 | 50 (≈ 90.6 µM) | 50 (≈ 90.6 µM) | 50 (≈ 90.6 µM) | > 50 | 50 (≈ 90.6 µM) |  | > 50 | 50 (≈ 90.6 µM) | 50 (≈ 90.6 µM) |  |  |  |  | 
8 | COC(=O)/C(C)=C/c1ccc(Oc2ccccc2N/C(=N/c2ccccc2)NC2CC2)cc1 | > 50 | 12.5 (≈ 28.3 µM) | > 1200 | > 50 | > 50 | > 50 | > 50 | > 50 | > 1200 | > 50 | > 50 | > 50 |  |  |  |  | 
9 | COc1ccc(Oc2ccccc2N/C(=N/c2ccccc2)NCCCCNc2ccnc3cc(Cl)ccc23)cc1 | > 50 | > 50 | 109 | > 50 | 50 (≈ 88.3 µM) | 50 (≈ 88.3 µM) | > 50 | > 50 | > 1000 | > 50 | > 50 | > 50 |  |  |  |  | 
10 | Clc1ccc(/N=C(\NCCCNc2ccnc3cc(Cl)ccc23)Nc2ccc(Oc3cc(Cl)ccc3Cl)cc2)cc1 | 50 (≈ 80 µM) | > 50 | > 800 | > 50 | > 50 | 50 (≈ 80 µM) | > 50 | > 50 | > 800 | > 50 | > 50 | > 50 |  |  |  |  | 
11 | COc1ccc(Oc2ccccc2N/C(=N/c2ccccc2)NCCNc2ccnc3cc(Cl)ccc23)cc1 | > 50 | > 50 | 42 | 50 (≈ 92.9 µM) | > 50 | 50 (≈ 92.9 µM) | > 50 | > 50 | 193 | > 50 | > 50 | > 50 |  |  |  |  | 
12 | COC(=O)/C(C)=C/c1ccc(Oc2ccccc2N/C(=N/c2cccc(Cl)c2)NCc2ccccc2)cc1 | > 50 | 12.5 (≈ 23.8 µM) | > 800 | > 50 | > 50 | > 50 | > 50 | > 50 | > 1200 | > 50 | > 50 | > 50 |  |  |  |  | 
13 | C[C@@H]1[C@H](O)[C@@H](C)/C=C/C=C/C=C/C=C/C=C/C=C/C=C/[C@H](O[C@@H]2O[C@H](C)[C@@H](O)[C@H](N)[C@@H]2O)C[C@@H]2O[C@](O)(C[C@@H](O)C[C@@H](O)[C@H](O)CC[C@@H](O)C[C@@H](O)CC(=O)O[C@H]1C)C[C@H](O)[C@H]2C(=O)O [AMPHOTERICIN B] | 0.12 (≈ 0.13 µM) |  |  |  | 0.5 (≈ 0.541 µM) | 0.12 (≈ 0.13 µM) |  |  |  | 0.06 (≈ 0.0649 µM) | 0.12 (≈ 0.13 µM) | 0.12 (≈ 0.13 µM) |  |  |  |  | 
14 | CN[C@H](CC(C)C)C(=O)N[C@H]1C(=O)N[C@@H](CC(N)=O)C(=O)N[C@H]2C(=O)N[C@H]3C(=O)N[C@H](C(=O)N[C@H](C(=O)O)c4cc(O)cc(O)c4-c4cc3ccc4O)[C@H](O)c3ccc(c(Cl)c3)Oc3cc2cc(c3O[C@@H]2O[C@H](CO)[C@@H](O)[C@H](O)[C@H]2O[C@H]2C[C@](C)(N)[C@H](O)[C@H](C)O2)Oc2ccc(cc2Cl)[C@H]1O [VANCOMYCIN] |  | > 50 |  | 0.78 (≈ 0.538 µM) |  |  | > 50 | > 50 |  |  |  |  |  |  |  |  | 
15 | COc1ccc(Oc2ccccc2N/C(=N/c2cccc(Cl)c2)NCCCNc2ccnc3cc(Cl)ccc23)cc1 | 6.25 (≈ 10.7 µM) | 25 (≈ 42.6 µM) | 369 | 3.12 (≈ 5.32 µM) | > 50 | 6.25 (≈ 10.7 µM) | > 50 | 3.12 (≈ 5.32 µM) |  | 50 (≈ 85.2 µM) | 50 (≈ 85.2 µM) | 6.25 (≈ 10.7 µM) |  |  |  |  | 10.4
16 | COC(=O)/C(C)=C/c1ccc(Oc2ccccc2N/C(=N/c2cccc(Cl)c2)NC2CC2)cc1 | 25 (≈ 52.5 µM) | 12.5 (≈ 26.3 µM) | > 1200 | 25 (≈ 52.5 µM) | > 50 | > 50 | > 50 | > 50 | > 1200 | > 50 | > 50 | 50 (≈ 105 µM) |  |  |  |  | 
17 | CCn1cc(C(=O)O)c(=O)c2cc(F)c(N3CCNCC3)cc21 [NORFLOXACIN] |  | 0.36 (≈ 1.13 µM) |  | 0.78 (≈ 2.44 µM) |  |  | 0.3 (≈ 0.939 µM) | 0.36 (≈ 1.13 µM) |  |  |  |  |  |  |  |  | 
18 | COC(=O)/C(C)=C/c1ccc(Oc2ccccc2N/C(=N/c2ccccc2)NCc2ccccc2)cc1 | > 50 | 12.5 (≈ 25.4 µM) | > 1200 | 25 (≈ 50.9 µM) | > 50 | > 50 | > 50 | > 50 | > 1200 | > 50 | > 50 | > 50 |  |  |  |  | 
19 | COC(=O)/C(C)=C/c1ccc(Oc2ccccc2N/C(=N/c2ccccc2)NCCNc2ccnc3cc(Cl)ccc23)cc1 | > 50 | > 50 | > 800 | > 50 | > 50 | > 50 | > 50 | > 50 | 168 | > 50 | > 50 | > 50 |  |  |  |  | 
